Data set [1] relates to Plasmodium falciparum. Description: Antimalarial activity against Plasmodium falciparum K1. The format is functional, organism-based.
Data set [2] is described as follows: Distribution coefficient, log D of the compound. The format is physicochemical. As to conditions: octanol/water.

Here are results for 3 compounds from ChEMBL document CHEMBL1143120, “Characterization of the two major CYP450 metabolites of ozonide (1,2,4-trioxolane) OZ277” (Bioorg Med Chem Lett, 2008).

≈ marks a conversion by molar mass, not a printed value.

Consider `CC(C)(N)CNC(=O)C[C@H]1CC[C@]2(CC1)OO[C@]1(O2)C2CC3CC1C[C@](O)(C3)C2`, for which, in data set [1], the IC50 (commonly the concentration that gives 50% inhibition) is over 0.1 µg/mL. Also, the logD – broadly, lipophilicity at a set pH, counting ionised and neutral species – in data set [2] came to 1.8.

Consider `CC(C)(N)CNC(=O)C[C@H]1CC[C@]2(CC1)OO[C@]1(O2)C2CC3CC1C[C@@](O)(C3)C2`, for which the IC50 in data set [1] is over 0.1 µg/mL. In addition, the logD in data set [2] came out at 1.8.

Take `CC(C)(N)CNC(=O)C[C@H]1CC[C@]2(CC1)OO[C@]1(O2)C2CC3CC(C2)CC1C3` [OZ277]: the IC50 in data set [1] turned out to be 0.001 µg/mL (≈ 0.00255 µM). In data set [2], this compound came in with a logD of 3.2.
